Reference: patent US4124710A, “Acetamidoxime derivatives and use thereof” (priority 1976, dated 1978)
Structures can show the parent of a compound that is named as a salt.

How the values were obtained:
[1] = tested on: hypertensive effect of acetylcholine in dog; assay: Ganglioplegic activity: hypertensive effect of acetylcholine in anaesthetized atropinized dog
[2] = tested on: male rats in which chronic renal hypertension had been induced; assay: Fall in arterial pressure in rats rendered hypertensive by the GROLLMAN method (chronic renal hypertension); format: in vivo, rat; conditions: intragastric; for Fall in A.P.: 25 mg/kg, measured before and 1-6 hours after administration
Procedure: The first test was carried out on male rats weighing about 120g in which chronic renal hypertension had been induced by the Grollman technique [Proc. Soc. exp.
According to this technique, the animals are anaesthetized with ether and one kidney is displaced from its site without being detached from the body, the suprarenal gland having been first liberated from the kidney but otherwise left intact. The kidney is then bound with twine in the form of a figure eight, just tightly enough to alter slightly the ellipsoid shape of the organ. Ten days later, the other kidney is completely removed together with its suprarenal gland.
Arterial pressure was measured immediately before and 1,2,3,4,5 and 6 hours after administration.

[3] = tested on: experimentally induced hypertension; conditions: rat, in vivo; cited from earlier work
male albino rats = assay: Volumetric urinary excretion (technique of LIPSCHITZ et al.); format: in vivo, rat; conditions: intragastric, 6 hours, % of volume of saline administered
Procedure: 1 -- Volumetric urinary excretion
This test was performed according to the technique of LIPSCHITZ et al. (J. Pharmacol. exp. Therap. 79, 97, 1943), by using groups of 20 male albino rats weighing from 150 to 200g which had been deprived of food and drink for 18 hours.
The substance to be tested was given by intragastric route immediately after the intragastric administration of 50 ml/kg of a 9°/°° solution of NaCl.
A control group also of 20 rats only received the saline solution. The total amount of urine excreted during the 6 hours following administration was collected and measured.

[4] = tested on: rats with neurogenic hypertension; assay: Neurogenic hypertension (technique of KRIEGER and IMBS); format: in vivo, rat; conditions: intragastric
Procedure: (§1) All of these tests were performeed on rats which were in a state of hypertension. Each test was divided into two series. In the first series, one single dose of the product under study was administered by intragastric route to each animal and the arterial pressure of the latter was measured every hour for six hours after administration. In the second series the product under study was given by the same route every day for eleven consecutive days and arterial pressure was measured daily throughout this period. The amount of product administered varied from one animal to another.
(4) Neurogenic hypertension
This test was performed in accordance with the technique of KRIEGER and IMBS (Circul. Res. 15, 511, 1964 and C.R. Soc. Biol. 162, 778, 1968).
Male rats weighing from 200 to 250g were anaesthetized with ether and 0.5mg of atropine sulphate was administered to them intraperitoneally.
The rats were fixed in a supine position and an incision was made in the front of the neck to expose the neuromuscular bundle comprising the sumpathetic and vagus nerve and the common carotid arteries.
The vagus nerves and the carotid arteries were then carefully isolated while one centimeter was cut out of the sympathetic nerves. […] The area in which the carotids divide was exposed by pulling aside the appropriate neck muscles (sternocleidomastoideus and omohyoideus). The vessels thus liberated were painted with 10% phenol in ethanol. In this way, complete sympathetic denervation was obtained.
A marked rise in arterial pressure was obtained after 5 to 8 days.

[5] = tested on: rats with saline hypertension; assay: Saline hypertension (technique of DAHL, KNUDSEN, HEINE and LEITL); format: in vivo, rat; conditions: intragastric
Procedure: as §1
This test was performed in accordance with the technique of DAHL, KNUDSEN, HEINE and LEITL.
Male rats weighing 55 ± 5g were fed on food containing 8% of NaCl but which was otherwise normal.
After six weeks of this diet, arterial pressure had risen to about 180 mm.Hg.

albino male rats = assay: Ionic ratio in urinary excretion (technique of AMBROSILI et al.); format: in vivo, rat; conditions: for Na^+ /K^+ Ratio / K^+ excretion / Na^+ excretion / Urinary excretion: intragastric, 4 hours; for Na^+ /K^+ Ratio: control 1; for K^+ excretion: control 18.5; for Na^+ excretion: control 27.3; for Urinary excretion: control 40
Procedure: 2 -- Ionic ratio in urinary excretion
This test was performed according to the technique of AMBROSILI et al. (Minerva Nepol. 11,56, 1964).
The substance to be tested was given by intragastric route immediately after the intragastric administration of 50 ml/kg of distilled water to groups of 20 albino male rats weighing 140 { 10g which had been fasting for 18 hours.
A control group, also comprising 20 animals, only received the distilled water.
The total amount of urine excreted during the 4 hours following administration was collected and measured and the total Na^+ and K^+ ion excretion values determined.
These values were then converted to millieequivalents per liter (mEq/l.) in order to obtain the correct Na^+ and K^+ ion excretion figures independently of the increase in the amount of urine.
The ionic ratio was obtained according to the following formula: [formula]

[6] = tested on: rats with genetic hypertension; assay: Genetic hypertension (technique of OKAMOTO and AOKI); format: in vivo, rat; conditions: for Maximum fall in A.P.: intragastric
Procedure: as §1
This test was performed in accordance with the technique of OKAMOTO and AOKI (Jap. Circul. J., 27, 282, 1963), using male rats belonging to a race which has been specially bred to produce animals having high blood pressure.

Mouse = assay: Acute toxicity in mice; format: in vivo; conditions: 12 days observation
Procedure: (§2) Finally, acute toxicity trials were carried out on rats and mice which were kept under observation for 12 days following one single administration.

Rat = assay: Acute toxicity in rats; format: in vivo; conditions: 12 days observation
Procedure: as §2

[7] = tested on: rats with hypertension of endocrine origin; assay: Hypertension of endocrine origin (DOCA; technique of STANTON and WHITE); format: in vivo, rat; conditions: intragastric
Procedure: as §1
(2) Hypertension of endocrine origin
This test was performed in accordance with the technique of STANTON and WHITE (Arch. Int. Pharmacodyn. 154, 351, 1965).
Female rats weighing 90 ± 10g were anaesthetized with ether and hypertension was produced by ablation of one kidney and the corresponding adrenal gland, after which a dose of 50 mg/kg of desoxycorticosterone acetate (DOCA) was administered subcutaneously five days a week over a period of four weeks. Throughout this period the drinking-water given to the rats contained 1% of NaCl. This was replaced by ordinary tap-water when administration of the desoxycorticosterone ceased.
Under these circumstances, arterial pressure rose to about 200 mm.Hg.

[8] = tested on: experimentally induced hypertension; assay: Experimentally induced hypertension, general statements on anti-hypertensive activity; conditions: rat, in vivo
Procedure: as §1

[9] = tested on: nictitating membrane of an anaesthetized cat; assay: Ganglioplegic activity: contractions of the nictitating membrane of anaesthetized cat; format: in vivo; conditions: two intravenous doses of 5 mg/kg
Procedure: (1) The arterial pressure and the tonus of the nictitating membrane of an anaesthetized cat was first noted, after which the contractile reaction of the membrane to an intravenous injection of adrenaline and to electric stimulation of the preganglionic fibre of the cervical sympathetic nerve was tested.

C[N+]1(CC(=O)c2ccc(-c3ccccc3)cc2)[C@@H]2CC[C@H]1C[C@@H](OC(=O)[C@H](CO)c1ccccc1)C2 (stereo partly shown) [phenthonium, reference compound]
effect on the hypertensive effect of acetylcholine ([1]; dose not stated, ganglioplegic substance): annulled the hypertensive effect of acetylcholine

CCCN1CCN(C(=N)Cc2c(CC)oc3ccccc23)CC1 [2-(2-ethyl-3-benzofuranyl)-N,N-(3-n-propyl-3-aza-pentamethylene)-acetamidine dihydrochloride, reference compound]
fall in arterial pressure ([2]; 50 mg/kg): 14 mm.Hg
fall in arterial pressure ([2]; 200 mg/kg): 24 mm.Hg
activity in the treatment of experimentally induced hypertension [3]: pharmacologically active

CCc1oc2ccccc2c1CC(=NO)NCCN1CCOCC1 [L 9552, 2-(2-ethyl-3-benzofuranyl)-N-(2-morpholino-ethyl)-acetamidoxime]
Fall in A.P. [2]: 36 mm.Hg
Maximum fall in A.P. ([2]; daily doses (11 days) 10 mg/kg): 18 mm.Hg
Maximum fall in A.P. ([2]; daily doses (11 days) 25 mg/kg): 32 mm.Hg
Maximum fall in A.P. ([2]; daily doses (11 days) 50 mg/kg): 47 mm.Hg
Maximum fall in A.P. ([2]; single dose 10 mg/kg): 14 mm.Hg
Maximum fall in A.P. ([2]; single dose 25 mg/kg): 36 mm.Hg
Maximum fall in A.P. ([2]; single dose 50 mg/kg): 55 mm.Hg
Urinary excretion (male albino rats; 10 mg/kg): 84%
Urinary excretion (male albino rats; 20 mg/kg): 102%
Urinary excretion (male albino rats; 50 mg/kg): 118%
Urinary excretion (male albino rats; 100 mg/kg): 138%
Urinary excretion (male albino rats; 200 mg/kg): 165%
Maximum fall in A.P. ([4]; daily doses (11 days) 10 mg/kg): 17 mm.Hg
Maximum fall in A.P. ([4]; daily doses (11 days) 25 mg/kg): 35 mm.Hg
Maximum fall in A.P. ([4]; single dose 10 mg/kg): 18 mm.Hg
Maximum fall in A.P. ([4]; single dose 25 mg/kg): 37 mm.Hg
Maximum fall in A.P. ([4]; single dose 50 mg/kg): 56 mm.Hg
Maximum fall in A.P. ([5]; daily doses (11 days) 10 mg/kg): 13 mm.Hg
Maximum fall in A.P. ([5]; daily doses (11 days) 25 mg/kg): 26 mm.Hg
Maximum fall in A.P. ([5]; daily doses (11 days) 50 mg/kg): 53 mm.Hg
Maximum fall in A.P. ([5]; single dose 10 mg/kg): 14 mm.Hg
Maximum fall in A.P. ([5]; single dose 25 mg/kg): 27 mm.Hg
Maximum fall in A.P. ([5]; single dose 50 mg/kg): 54 mm.Hg
Na^+ /K^+ Ratio (albino male rats; 10 mg/kg): 1.09
K^+ excretion (albino male rats; 10 mg/kg): 15.3 mEq/l.
Na^+ excretion (albino male rats; 10 mg/kg): 24.8 mEq/l.
Urinary excretion (albino male rats; 10 mg/kg): 55%
Na^+ /K^+ Ratio (albino male rats; 20 mg/kg): 1.66
K^+ excretion (albino male rats; 20 mg/kg): 17.5 mEq/l.
Na^+ excretion (albino male rats; 20 mg/kg): 43.0 mEq/l.
Urinary excretion (albino male rats; 20 mg/kg): 80%
Na^+ /K^+ Ratio (albino male rats; 50 mg/kg): 2.50
K^+ excretion (albino male rats; 50 mg/kg): 15.0 mEq/l.
Na^+ excretion (albino male rats; 50 mg/kg): 55.6 mEq/l.
Urinary excretion (albino male rats; 50 mg/kg): 95%
Na^+ /K^+ Ratio (albino male rats; 100 mg/kg): 3.37
K^+ excretion (albino male rats; 100 mg/kg): 14.3 mEq/l.
Na^+ excretion (albino male rats; 100 mg/kg): 71.3 mEq/l.
Urinary excretion (albino male rats; 100 mg/kg): 137%
Na^+ /K^+ Ratio (albino male rats; 200 mg/kg): 3.34
K^+ excretion (albino male rats; 200 mg/kg): 15.8 mEq/l.
Na^+ excretion (albino male rats; 200 mg/kg): 78.0 mEq/l.
Urinary excretion (albino male rats; 200 mg/kg): 124%
sodium-excretion index (albino male rats; rat, in vivo): very favourable
Maximum fall in A.P. ([6]; daily doses (11 days) 5 mg/kg): 0 mm.Hg
Maximum fall in A.P. ([6]; daily doses (11 days) 10 mg/kg): 26 mm.Hg
Maximum fall in A.P. ([6]; daily doses (11 days) 20 mg/kg): 47 mm.Hg
activity in genetic hypertension ([6]; rat, in vivo): especially active
Maximum fall in A.P. ([6]; single dose 5 mg/kg): 16 mm.Hg
Maximum fall in A.P. ([6]; single dose 10 mg/kg): 35 mm.Hg
Maximum fall in A.P. ([6]; single dose 20 mg/kg): 52 mm.Hg
effect on the hypertensive effect of acetylcholine ([1]; 5 mg/kg intravenous, 1 mg/kg acetylcholine): did not alter the hypertensive effect
LD0 (Mouse; intragastric): 250 mg/kg
LD95 (Mouse; intragastric): 1,250 mg/kg
LD0 (Mouse; intraperitoneal): 30 mg/kg
LD95 (Mouse; intraperitoneal): 110 mg/kg
LD0 (Rat; intragastric): 1,100 mg/kg
LD95 (Rat; intragastric): 2,500 mg/kg
LD0 (Rat; intraperitoneal): 80 mg/kg
LD95 (Rat; intraperitoneal): 350 mg/kg
Maximum fall in A.P. ([7]; daily doses (11 days) 25 mg/kg): 15 mm.Hg
Maximum fall in A.P. ([7]; daily doses (11 days) 50 mg/kg): 30 mm.Hg
Maximum fall in A.P. ([7]; daily doses (11 days) 100 mg/kg): 49 mm.Hg
Maximum fall in A.P. ([7]; single dose 25 mg/kg): 18 mm.Hg
Maximum fall in A.P. ([7]; single dose 50 mg/kg): 26 mm.Hg
Maximum fall in A.P. ([7]; single dose 100 mg/kg): 45 mm.Hg
activity in the five types of experimentally induced hypertension [8]: active
effect on intensity of contractions of the nictitating membrane (adrenaline, electric stimulation) [9]: did not modify the intensity of the contractions of the membrane

NS(=O)(=O)c1cc2c(cc1Cl)NCNS2(=O)=O [hydrochlorothiazide, reference compound]
activity in this test ([2]; 200 mg/kg): inactive

CCc1oc2ccc(Cl)cc2c1CC(=NO)NCCN1CCOCC1 [2-(2-Ethyl-5-chloro-3-benzofuranyl)-N-(2-morpholino-ethyl)-acetamidoxime]
Fall in A.P. [2]: 21 mm.Hg

CCCCN(CCCC)CCNC(Cc1c(CC)oc2ccccc12)=NO [2-(2-Ethyl-3-benzofuranyl)-N-(2-di-n-butylamine-ethyl)-acetamidoxime]
Fall in A.P. [2]: 27 mm.Hg

Cc1oc2ccccc2c1CC(=NO)NCCN1CCOCC1 [2-(2-Methyl-3-benzofuranyl)-N-(2-morpholino-ethyl)-acetamidoxime]
Fall in A.P. [2]: 25 mm.Hg
